Measurements published in patent US20030161854A1, “Synergistic formulations” (priority 2000, published 2003).

Tested on: 1st instar larvae of Lucilia cuprina
Assay: In-vitro investigation for possible potentiation between spinosad and ivermectin in sheep blowfly larvae (treated chromatography papers, fractions of LC90)
Assay type: in vivo
Details: 48 hours
Description: Forty to 50 newly hatched 1st instar larvae of Lucilia cuprina were washed with sheep serum onto chromatography papers treated with serial dilutions of ivermectin or spinosad as set out below. After 48 hours numbers of live and dead larvae were counted. The LC90 was calculated for spinosad and ivermectin. Larvae were exposed to that concentration of spinosad or ivermectin and ½, ¼ and ⅛ of the LC90. In addition larvae were exposed to 1:1, 1:4, 4:1, 9:1 and 1:9 combinations of each chemical with each concentration of chemical being a fraction of the LC90.
There were 19 treatment groups in the study (plus an untreated control group):
D 12-14: Four:one rates of Ivermectin:Spinosad—(0.8×, 0.2×), (0.4×, 0.1×) and (0.2×, 0.05×)
E 15-17: Four:one rates of Spinosad:lvermectin—(0.8×, 0.2×), (0.4×, 0.1×) and (0.2×, 0.05×)
Each group was tested on 4 replicates of 50 flies and the number of dead flies per replicate was recorded.
The method of generalized linear models for overdispersed binomial data using the logistic link function was used for an analysis of the 19 treatment groups. The analysis estimated dose-response lines (on the logarithmic dose scale) for each chemical or combination. The lines for each separate chemical were used to predict the efficacy (on the logistic scale) of the combinations assuming independent action, i.e. with no synergism. These were compared with the efficacy observed or predicted from the dose-response lines for the combinations.

## spinosad
0.125x LC90
  Mean efficacy (Dose-response) %: 9.8%
  Mean efficacy (Dose-response) Logit: −2.21 ± 0.28
  Mean efficacy (Sample estimate) %: 16.0%
  Mean efficacy (Sample estimate) Logit: −1.66 ± 0.30
0.25x LC90
  Mean efficacy (Dose-response) %: 30.7%
  Mean efficacy (Dose-response) Logit: −0.81 ± 0.17
  Mean efficacy (Sample estimate) %: 22.0%
  Mean efficacy (Sample estimate) Logit: −1.27 ± 0.27
0.5x LC90
  Mean efficacy (Dose-response) %: 64.1%
  Mean efficacy (Dose-response) Logit: 0.58 ± 0.16
  Mean efficacy (Sample estimate) %: 63.0%
  Mean efficacy (Sample estimate) Logit: 0.53 ± 0.23
1.0x LC90
  Mean efficacy (Dose-response) %: 87.9%
  Mean efficacy (Dose-response) Logit: 1.98 ± 0.27
  Mean efficacy (Sample estimate) %: 91.5%
  Mean efficacy (Sample estimate) Logit: 2.38 ± 0.39

## ivermectin
0.125x LC90
  Mean efficacy (Dose-response) %: 1.6%
  Mean efficacy (Dose-response) Logit: −4.14 ± 0.48
  Mean efficacy (Sample estimate) %: 3.0%
  Mean efficacy (Sample estimate) Logit: −3.48 ± 0.64
0.25x LC90
  Mean efficacy (Dose-response) %: 13.2%
  Mean efficacy (Dose-response) Logit: −1.88 ± 0.26
  Mean efficacy (Sample estimate) %: 11.0%
  Mean efficacy (Sample estimate) Logit: −2.09 ± 0.35
0.5x LC90
  Mean efficacy (Dose-response) %: 59.4%
  Mean efficacy (Dose-response) Logit: 0.38 ± 0.18
  Mean efficacy (Sample estimate) %: 59.5%
  Mean efficacy (Sample estimate) Logit: 0.38 ± 0.22
1.0x LC90
  Mean efficacy (Dose-response) %: 93.3%
  Mean efficacy (Dose-response) Logit: 2.64 ± 0.34
  Mean efficacy (Sample estimate) %: 94.0%
  Mean efficacy (Sample estimate) Logit: 2.75 ± 0.46
